The target in one data set is cdc2/cyclinB (Homo sapiens, UniProt P06493). Kind of data set: Cyclin-Dependent Kinase Assay cdc2/cyclinB.
For a further data set, the target named is cdk2/cyclinE (Homo sapiens, UniProt P24941). As to the kind of experiment: Cyclin-Dependent Kinase Assay cdk2/cyclinE.
A further data set addresses cdk4/D (Homo sapiens, UniProt P11802). Kind of data set: Cyclin-Dependent Kinase 4 (cdk4) Assay. It is filed as biochemical.
The next data set has as its target cdk2/cyclinA (Homo sapiens, UniProt P24941). Kind of data set: Cyclin-Dependent Kinase Assay cdk2/cyclinA.
The target of a further data set is Cdk5/p25 (Homo sapiens, UniProt Q00535). Kind of data set: Cyclin-Dependent Kinase 5 (cdk5) Assay. It is filed as biochemical. The protocol: Cyclin-Dependent Kinase 5 (cdk5) Assay
Enzyme assays for IC50 determinations and kinetic evaluation were performed in 96-well filter plates (Millipore MAPH NOB 10). […] All components except histone and ATP were added to wells, and the plate was placed on a shaker for 5 minutes. The reaction was started by adding histone and [^32P]ATP, and the plate was shaken at 30° C. for 45 minutes. The reaction was terminated by addition of 0.1 mL of 150 mM phosphoric acid. The plate was kept at 4° C. for 30 minutes to allow substrate to precipitate. The wells were then washed three times with 0.2 mL of 75 mM phosphoric acid and ^32P incorporation was determined with a beta plate counter (Wallac Inc, Gaithersburg, Md.).

The structures appear in SMILES notation. Read-outs that look alike come from different tables or passages of the source.

Here are results for 30 molecules from patent US20040224958A1, “Pyridopyrimidinone derivatives for treatment of neurodegenerative disease” (priority 2000, published 2004).

As usually defined, the melting point is the temperature of the solid-liquid transition.

cdc2/cyclinB, sequence (P06493 whole entry): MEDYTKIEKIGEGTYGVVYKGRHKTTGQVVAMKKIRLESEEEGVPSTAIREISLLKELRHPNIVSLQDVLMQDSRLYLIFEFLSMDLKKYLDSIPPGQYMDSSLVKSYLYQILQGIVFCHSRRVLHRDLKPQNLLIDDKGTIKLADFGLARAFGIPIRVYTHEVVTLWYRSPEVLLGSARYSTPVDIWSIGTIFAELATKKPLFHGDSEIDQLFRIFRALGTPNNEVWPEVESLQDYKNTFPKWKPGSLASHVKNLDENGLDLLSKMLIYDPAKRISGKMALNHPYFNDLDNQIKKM
cdc2/cyclinB, sequence (P14635 whole entry, further chain): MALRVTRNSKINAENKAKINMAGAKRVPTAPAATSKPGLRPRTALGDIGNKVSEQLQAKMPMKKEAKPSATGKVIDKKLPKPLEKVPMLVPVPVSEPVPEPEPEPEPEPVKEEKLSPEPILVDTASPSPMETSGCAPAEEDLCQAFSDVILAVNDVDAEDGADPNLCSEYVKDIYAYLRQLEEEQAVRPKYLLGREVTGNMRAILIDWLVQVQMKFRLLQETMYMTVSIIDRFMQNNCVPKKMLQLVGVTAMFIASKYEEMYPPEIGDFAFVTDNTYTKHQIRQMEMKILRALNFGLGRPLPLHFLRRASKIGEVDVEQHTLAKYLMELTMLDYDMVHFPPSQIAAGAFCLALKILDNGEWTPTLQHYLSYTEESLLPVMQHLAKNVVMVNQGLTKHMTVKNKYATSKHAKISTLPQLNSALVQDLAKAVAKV
cdk4/D, sequence (P11802 whole entry): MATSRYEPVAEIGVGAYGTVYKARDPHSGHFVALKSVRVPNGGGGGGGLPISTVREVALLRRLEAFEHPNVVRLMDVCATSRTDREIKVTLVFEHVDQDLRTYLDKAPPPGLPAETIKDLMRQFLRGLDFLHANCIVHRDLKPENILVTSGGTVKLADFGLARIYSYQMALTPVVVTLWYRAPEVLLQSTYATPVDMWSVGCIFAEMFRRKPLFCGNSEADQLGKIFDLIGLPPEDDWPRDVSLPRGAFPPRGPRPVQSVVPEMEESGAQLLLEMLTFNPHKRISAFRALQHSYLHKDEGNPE
cdk4/D, sequence (P24385 whole entry, further chain): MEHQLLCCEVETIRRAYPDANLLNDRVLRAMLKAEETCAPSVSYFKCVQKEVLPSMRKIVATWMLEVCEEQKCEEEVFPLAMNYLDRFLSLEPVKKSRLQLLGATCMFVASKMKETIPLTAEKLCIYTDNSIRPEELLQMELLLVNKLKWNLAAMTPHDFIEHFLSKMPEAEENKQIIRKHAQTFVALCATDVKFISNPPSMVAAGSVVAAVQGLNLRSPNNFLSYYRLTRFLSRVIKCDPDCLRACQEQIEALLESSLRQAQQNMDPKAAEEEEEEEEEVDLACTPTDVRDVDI

For the molecule `O=c1ccc2cnc(Nc3ccc(N4CCCCC4)cc3)nc2n1[C@H]1C[C@H]2CC[C@@H]1C2` (relative stereo) [Example 229, 8-Dicyclo[2.2.1]hept-2-yl-2-(4-piperidin-1-yl-phenylamino)-8H-pyrido[2,3-d]pyrimidin-7-one], the IC50 on cdc2/cyclinB came to 440 nM; on cdk2/cyclinE (cdk2/E IC50, Table 1), 3000 nM; at cdk4/D (Table 1, read-out: cdk4/D IC50) it was 2800 nM; against cdk2/cyclinA (cdk2/A IC50, Table 1) it was 996 nM; at Cdk5/p25 (Table 1), 288 nM.

Molecule `CCn1c(=O)ccc2cnc(Nc3ccccc3)nc21` [Example 18, 8-Ethyl-2-phenylamino-8H-pyrido[2,3-d]pyrimidin-7-one] returned a melting point of 203 to 204 °C. At Cdk5/p25 (Table 1), the IC50 came to 65 nM.

`CC(C)Cn1c(=O)ccc2cnc(Nc3ccccc3)nc21` [Example 42, 8-Isobutyl-2-phenylamino-8H-pyrido[2,3-d]pyrimidin-7-one] had a melting point of 170 to 171 °C. Further, on Cdk5/p25 (Table 1), the IC50 worked out at 15 nM.

As for `CCn1c(=O)ccc2cnc(Nc3ccc(OC)cc3)nc21` [Example 51, 8-Ethyl-2-(4-methoxyphenylamino)-8H-pyrido[2,3-d]pyrimidin-7-one], the melting point fell in the range of 196 to 197 °C. In addition, the IC50 at Cdk5/p25 (Table 1) is 49 nM.

With `CCN(CC)CCOc1ccc(Nc2ncc3ccc(=O)n(CC)c3n2)cc1` [Example 52, 2-[4-(2-Diethylaminoethoxy)-phenylamino]-8-ethyl-8H-pyrido[2,3-d]-pyrimidin-7-one], the melting point was 128 to 129 °C. At Cdk5/p25 (Table 1), this molecule had an IC50 of 155 nM.

Regarding `CCn1c(=O)ccc2cnc(Nc3ccc(N4CCN(C)CC4)cc3)nc21` [Example 53, 8-Ethyl-2-[4-(4-methylpiperazin-1-yl)-phenylamino]-8H-pyrido[2,3-d]-pyrimidin-7-one], the melting point was 185 to 186 °C. The IC50 at Cdk5/p25 (Table 1) turned out to be 239 nM.

On to `CCn1c(=O)ccc2cnc(Nc3cccc(OC(F)(F)C(F)F)c3)nc21` [Example 54, 8-Ethyl-2-[3-(1,1,2,2-tetrafluoroethoxy)-phenylamino]-8H-pyrido[2,3-d]-pyrimidin-7-one], for which the melting point was 175 to 176 °C. The molecule further showed an IC50 against Cdk5/p25 (Table 1) of 568 nM.

In turn, `CCn1c(=O)ccc2cnc(Nc3ccc(OCCOC)cc3)nc21` [Example 57, 8-Ethyl-2-[4-(2-methoxyethoxy)phenylamino]-8H-pyrido[2,3-d]pyrimidin-7-one] showed a melting point of 169 to 171 °C. This molecule also displayed an IC50 against Cdk5/p25 (Table 1) of 218 nM.

For the molecule `CCN1C(=O)CCc2cnc(Nc3ccccc3)nc21` [Example 69, 8-Ethyl-2-phenylamino-5,8-dihydro-6H-pyrido[2,3-d]pyrimidin-7-one], the melting point was 146 to 147 °C. This molecule also displayed an IC50 against Cdk5/p25 (Table 1) of 65 nM.

Turning to `CCn1c(=O)ccc2cnc(Nc3ccc(N4CCOCC4)cc3)nc21` [Example 79, 8-Ethyl-2-(4-morpholin-4-yl-phenylamino)-8H-pyrido[2,3-d]pyrimidin-7-one], the melting point lay within 227 to 228 °C. This molecule displayed an IC50 against Cdk5/p25 (Table 1) of 107 nM.

Consider `CCn1c(=O)c(C)cc2cnc(Nc3ccccc3)nc21` [Example 83, 8-Ethyl-6-methyl-2-phenylamino-8H-pyrido[2,3-d]pyrimidin-7-one], for which the melting point was 178 to 180 °C. The IC50 against Cdk5/p25 (Table 1) worked out at 587 nM.

For the molecule `CCn1c(=O)c(C)cc2cnc(Nc3ccc(N4CCN(C)CC4)cc3)nc21` [Example 84, 8-Ethyl-6-methyl-2-[4-(4-methyl-piperazin-1-yl)-phenylamino]-8H-pyrido[2,3-d]pyrimidin-7-one], the melting point is 198 to 200 °C. The IC50 on Cdk5/p25 (Table 1) is 765 nM.

For the molecule `CCn1c(=O)ccc2cnc(Nc3cccc(F)c3)nc21` [Example 89, 8-Ethyl-2-(3-fluorophenylamino)-8H-pyrido[2,3-d]pyrimidin-7-one], the melting point was 210 to 212 °C. The IC50 at Cdk5/p25 (Table 1) is 393 nM.

Take `CCn1c(=O)ccc2cnc(Nc3ccc(OC)c(F)c3)nc21` [Example 90, 8-Ethyl-2-(3-fluoro-4-methoxyphenylamino)-8H-pyrido[2,3-d]pyrimidin-7-one]: the melting point was in the range of 196 to 198 °C. Further, the IC50 at Cdk5/p25 (Table 1) is 29 nM.

As to `CCn1c(=O)ccc2cnc(Nc3cccc(F)c3OC)nc21` [Example 91, 8-Ethyl-2-(3-fluoro-2-methoxyphenylamino)-8H-pyrido[2,3-d]pyrimidin-7-one], the melting point lay within 92 to 93 °C. The IC50 on Cdk5/p25 (Table 1) worked out at 4450 nM.

Consider `CCn1c(=O)ccc2cnc(Nc3ccccc3OC)nc21` [Example 92, 8-Ethyl-2-(2-methoxyphenylamino)-8H-pyrido[2,3-d]pyrimidin-7-one], for which the melting point was in the range of 126 to 128 °C. Besides, the IC50 at Cdk5/p25 (Table 1) amounted to 1680 nM.

Consider `CCn1c(=O)ccc2cnc(Nc3ccc(N(C)C)cc3)nc21` [Example 93, 2-(4-Dimethylamino-phenylamino)-8-ethyl-8H-pyrido[2,3-d]pyrimidin-7-one], for which the melting point fell in the range of 189 to 191 °C. In addition, on Cdk5/p25 (Table 1), the IC50 came out at 64 nM.

In turn, `O=c1ccc2cnc(Nc3ccccc3)nc2n1C1CCCC1` [Example 108, 8-Cyclopentyl-2-phenylamino-8H-pyrido[2,3-d]pyrimidin-7-one] had a melting point of 188 to 192 °C. This molecule also gave an IC50 on Cdk5/p25 (Table 1) of 26 nM.

`O=c1ccc2cnc(Nc3ccccc3)nc2n1C1CCCCC1` [Example 131, 8-Cyclohexyl-2-phenylamino-8H1-pyrido[2,3-d]pyrimidin-7-one]: the melting point was in the range of 202 to 204 °C. This molecule displayed an IC50 on Cdk5/p25 (Table 1) of 15 nM.

Take `CCN(CC)CCOc1ccc(Nc2ncc3ccc(=O)n(C4CC4)c3n2)cc1` [Example 134, 8-Cyclopropyl-2-[4-(2-diethylamino-ethoxy)-phenylamino]-8H-pyrido[2,3-d]pyrimidin-7-one]: the melting point lay in the range of 119 to 121 °C. Further, the IC50 at cdk4/D (Table 1, read-out: cdk4/D IC50) was found to be 53 nM. This molecule also registered an IC50 on Cdk5/p25 (Table 1) of 326 nM.

On to `O=c1ccc2cnc(Nc3ccccc3)nc2n1C1CC1` [Example 135, 8-Cyclopropyl-2-phenylamino-8H-pyrido[2,3-d]pyrimidin-7-one], for which the melting point lay within 191 to 193 °C. The same molecule returned an IC50 against Cdk5/p25 (Table 1) of 493 nM.

Molecule `CN1CCN(c2ccc(Nc3ncc4ccc(=O)n(C5CC5)c4n3)cc2)CC1` [Example 136, 8-Cyclopropyl-2-[4-(4-methyl-piperazin-1-yl)-phenylamino]-81H-pyrido[2,3-d]pyrimidin-7-one] came in with a melting point of 210 to 211 °C. Also, at Cdk5/p25 (Table 1), the IC50 was found to be 240 nM.

On to `CN(C)CCCN1CCN(c2ccc(Nc3ncc4ccc(=O)n(C5CCCCC5)c4n3)cc2)CC1` [Example 144], for which the IC50 was determined as 344 nM at cdc2/cyclinB (read-out: cdk1/B IC50, Table 1); 43 nM at cdk2/cyclinE (read-out: cdk2/E IC50, Table 1); 16 nM at cdk4/D (Table 1, read-out: cdk4/D IC50); 102 nM at cdk2/cyclinA (read-out: cdk2/A IC50, Table 1); 39.4 nM against Cdk5/p25 (Table 1).

`CN(C)c1ccc(Nc2ncc3ccc(=O)n(C4CCCCC4)c3n2)cc1` [Example 147, 8-Cyclohexyl-2-(4-dimethylamino-phenylamino)-8H-pyrido[2,3-d]pyrimidin-7-one]: the melting point was in the range of 204 to 205 °C. This molecule registered an IC50 against Cdk5/p25 (Table 1) of 24 nM.

On to `O=c1ccc2cnc(Nc3ccc(N4CCCCC4)cc3)nc2n1C1CCCCCC1` [Example 163, 8-Cycloheptyl-2-(4-piperidin-1-yl-phenylamino)-8H-pyrido[2,3-d]primidin-7-one], for which the IC50 at cdc2/cyclinB (read-out: cdk1/B IC50, Table 1) was found to be 642 nM; at cdk2/cyclinE (read-out: cdk2/E IC50, Table 1), 193 nM; on cdk4/D (Table 1, read-out: cdk4/D IC50), 31.5 nM; at cdk2/cyclinA (read-out: cdk2/A IC50, Table 1), 66.8 nM; on Cdk5/p25 (Table 1), 150 nM.

With `Cc1cc(C)n(-c2ccc(Nc3ncc4ccc(=O)n(C5CCCC5)c4n3)cc2)n1` [Example 195, 8-Cyclopentyl-2-[4-(3,5-dimethyl-pyrazol-1-yl)-phenylamino]-8H-pyrido[2,3-d]pyrimidin-7-one], the melting point fell in the range of 169 to 171 °C. Also, at cdk4/D (Table 1, read-out: cdk4/D IC50), the IC50 stood at 133 nM. At Cdk5/p25 (Table 1), the IC50 was 156 nM.

For the molecule `O=c1ccc2cnc(Nc3ccc(SC(F)(F)F)cc3)nc2n1C1CC2CCC1C2` (stereo not shown) [Example 221, 8-Bicyclo[2.2.1]hept-2-yl-2-(4-trifluoromethylsuffanyl-phenylamino)-8H-pyrido[2,3-d]pyrimidin-7-one], the IC50 on cdc2/cyclinB (read-out: cdk1/B IC50, Table 1) came to 1120 nM; at cdk2/cyclinE (read-out: cdk2/E IC50, Table 1) it was 511 nM; at cdk4/D (Table 1, read-out: cdk4/D IC50), 320 nM; at cdk2/cyclinA (read-out: cdk2/A IC50, Table 1), 370 nM; against Cdk5/p25 (Table 1), 349 nM.

For `O=c1ccc2cnc(Nc3ccc(N4CCCC(O)C4)cc3)nc2n1C1CC2CCC1C2` (stereo not shown) [Example 254], the IC50 amounted to 175 nM on cdc2/cyclinB; 64 nM on cdk2/cyclinE (cdk2/E IC50, Table 1); 3.5 nM at cdk4/D (Table 1, read-out: cdk4/D IC50); 28 nM against cdk2/cyclinA (cdk2/A IC50, Table 1); 44.9 nM against Cdk5/p25 (Table 1).

Turning to `CC1CN(c2ccc(Nc3ncc4ccc(=O)n(C5CC6CCC5C6)c4n3)cc2)CC(C)N1` (stereo not shown) [Example 255], the IC50 came to 335 nM at cdc2/cyclinB (read-out: cdk1/B IC50, Table 1); 124 nM at cdk2/cyclinE (read-out: cdk2/E IC50, Table 1); 3 nM at cdk4/D (Table 1, read-out: cdk4/D IC50); 67.5 nM on cdk2/cyclinA (read-out: cdk2/A IC50, Table 1); 32.1 nM against Cdk5/p25 (Table 1).

For the molecule `CCC(CC)n1c(=O)ccc2cnc(Nc3ccccc3)nc21` [R′=H, R″=H, R2=1-ethylpropyl, 8-(1-Ethylpropyl)-2-phenylamino-8H-pyrido[2,3-d]pyrimidin-7-one], the IC50 is 200 nM at cdk2/cyclinE (Cdk2/E IC50, Table 3); 159 nM on cdk4/D (Table 3, read-out: Cdk4 IC50); 127 nM on cdk2/cyclinA (Cdk2/A IC50, Table 3); 8.7 nM on Cdk5/p25 (Table 3).
